What was measured:
Assay type in all cases: physicochemical
[1] = Dissolution test of formulations; conditions: for Dissolution rate (%): formulation per Example 1 of WO00/35460, average of 3
Description: Using the novel Form B prepared in Example 11 of the present invention and the Form I prepared in Example 1 of WO99/04774 as raw materials, each formulation was manufactured by the technique disclosed in Example 1 of WO00/35460. Dissolution rates were compared in 0.01N HCl solution, pH 1.2 buffer solution (NaCl 20 g+37% HCl 68˜70 mL+distilled water 9 L), pH 4.0 buffer solution (sodium acetate 7.38 g+acetic acid 25 mL+distilled water 9 L), pH 6.0 buffer solution (KH2PO4 68 g+NaOH+distilled water 10 L) and pH 7 distilled water. Experiments were repeated 3 times for each case, and the average values are represented in Table 4.

[2] = Stability test (HPLC content and decomposition products, 5° C. and accelerated condition over 6 months)
Description: The novel Forms A and B of Examples 3 and 11 of the present invention, and 50 mg of the authentic adefovir dipivosil (purity: 99.5%) were precisely weighed into a 50 mL volumetric flask and dissolved in diluent. After making up to the mark, they were used as sample solution and standard solution, respectively. Analysis was carried out according to the following conditions, so that the contents of the novel Forms A and B, and the amounts of decomposition products of adefovir dipivoxil formed were calculated by the peak areas. The changes in the contents of novel crystal forms and the amounts of decomposition products were measured under 5° C. and accelerated condition over 6 months.
Instrument: Waters HPLC model 2695
Column: Allech Mixed Mode Anion exchange C8, 7 um 100 A pore size, 250 mm×4.6 mm
Mobile phase mixing condition was operated as follows: For 19 min, mobile phase A was changed from 100% to 0%, and mobile phase B was changed from 0% to 100%. After elution with mobile phase B 100% till 36 min, the elution was changed from mobile phase A 0% to 100% till 46 min.
Mobile phase A: buffer/acetonitrile (70:30, v/v)
Mobile phase B: buffer/acetonitrile (50:50, v/v)
Buffer: 9.2 g of K2HPO4 and 47.2 g of KH2PO4 were dissolved in 2 L of purified water
Diluent: 3.4 g of KH2PO4 was dissolved in 1 L of purified water and adjusted to pH 3.0
Detector wave length: 260 nm

[3] = Drying temperature conditions: transformation of the crystal form under vacuum drying; conditions: for Crystal form: vacuum 0.1˜1.0 Torr
Description: Form A prepared by Example 3 was treated with various drying temperatures and drying times under the vacuum condition of 0.1˜1.0 Torr, and the resulting trans-formation of the crystal form is represented in Table 1.

[4] = Accelerated (25° C., 60% RH), 0 month
[5] = Accelerated (25° C., 60% RH), 1 month
[6] = Accelerated (25° C., 60% RH), 3 months
[7] = Accelerated (25° C., 60% RH), 6 months
[8] = drying time 10 h, drying temperature 40° C.

SMILES: CC(C)(C)C(=O)OCOP(=O)(COCCN1C=NC2C(N)=NC=NC21)OCOC(=O)C(C)(C)C (single isomer, unassigned) [Form B, 9-[2-[phosphonomethoxy]ethyl]adenine bis-pivaloyloxymethyl ester]
- Dissolution rate (%) ([1]; 0.01N HCl, 5 min): 85.25%
- Dissolution rate (%) ([1]; 0.01N HCl, 10 min): 97.19%
- Dissolution rate (%) ([1]; 0.01N HCl, 15 min): 99.65%
- Dissolution rate (%) ([1]; 0.01N HCl, 30 min): 101.12%
- Dissolution rate (%) ([1]; distilled water (pH 7), 5 min): 83.57%
- Dissolution rate (%) ([1]; distilled water (pH 7), 10 min): 96.96%
- Dissolution rate (%) ([1]; distilled water (pH 7), 15 min): 98.73%
- Dissolution rate (%) ([1]; distilled water (pH 7), 30 min): 98.96%
- Dissolution rate (%) ([1]; pH 1.2 buffer, 5 min): 93.77%
- Dissolution rate (%) ([1]; pH 1.2 buffer, 10 min): 101.06%
- Dissolution rate (%) ([1]; pH 1.2 buffer, 15 min): 102.03%
- Dissolution rate (%) ([1]; pH 1.2 buffer, 30 min): 101.71%
- Dissolution rate (%) ([1]; pH 4.0 buffer, 5 min): 87.18%
- Dissolution rate (%) ([1]; pH 4.0 buffer, 10 min): 96.99%
- Dissolution rate (%) ([1]; pH 4.0 buffer, 15 min): 98.21%
- Dissolution rate (%) ([1]; pH 4.0 buffer, 30 min): 98.98%
- Dissolution rate (%) ([1]; pH 6.0 buffer, 5 min): 88.62%
- Dissolution rate (%) ([1]; pH 6.0 buffer, 10 min): 95.33%
- Dissolution rate (%) ([1]; pH 6.0 buffer, 15 min): 98.01%
- Dissolution rate (%) ([1]; pH 6.0 buffer, 30 min): 100.32%
- Dissolution rate compared with the formulation utilizing the existing Form I ([1]; formulations, summary of Table 4): superior
- Content ([2]; 5° C., 0 month): 100.48%
- Total amount of decomposition product ([2]; 5° C., 0 month): 0.38%
- Content ([2]; 5° C., 1 month): 100.34%
- Total amount of decomposition product ([2]; 5° C., 1 month): 0.31%
- Content ([2]; 5° C., 3 months): 99.18%
- Total amount of decomposition product ([2]; 5° C., 3 months): 0.36%
- Content ([2]; 5° C., 6 months): 99.74%
- Total amount of decomposition product ([2]; 5° C., 6 months): 0.43%
- Content [2, 4]: 100.48%
- Total amount of decomposition product [2, 4]: 0.38%
- Content [2, 5]: 98.85%
- Total amount of decomposition product [2, 5]: 0.42%
- Content [2, 6]: 100.25%
- Total amount of decomposition product [2, 6]: 0.50%
- Content [2, 7]: 99.32%
- Total amount of decomposition product [2, 7]: 0.66%

SMILES: CC(C)(C)C(=O)OCOP(=O)(COCCN1C=NC2C(N)=NC=NC21)OCOC(=O)C(C)(C)C (single isomer, unassigned) [Form A, 9-[2-[phosphonomethoxy]ethyl]adenine bis-pivaloyloxymethyl ester]
- Content ([2]; 5° C., 0 month): 100.26%
- Total amount of decomposition product ([2]; 5° C., 0 month): 0.27%
- Content ([2]; 5° C., 1 month): 99.45%
- Total amount of decomposition product ([2]; 5° C., 1 month): 0.25%
- Content ([2]; 5° C., 3 months): 100.43%
- Total amount of decomposition product ([2]; 5° C., 3 months): 0.25%
- Content ([2]; 5° C., 6 months): 100.2%
- Total amount of decomposition product ([2]; 5° C., 6 months): 0.32%
- Content [2, 4]: 100.26%
- Total amount of decomposition product [2, 4]: 0.27%
- Content [2, 5]: 99.68%
- Total amount of decomposition product [2, 5]: 0.38%
- Content [2, 6]: 99.50%
- Total amount of decomposition product [2, 6]: 0.43%
- Content [2, 7]: 100.06%
- Total amount of decomposition product [2, 7]: 0.60%
- Transformation of the crystal form ([3]; dried at 35 to 45° C.): transformed from Form A to Form B
- Crystal form ([3]; drying time 10 h, drying temperature 25° C.): Form A (2 hydrate)
- Crystal form ([3]; drying time 10 h, drying temperature 35° C.): Form B
- Crystal form [3, 8]: Form B
- Crystal form ([3]; drying time 10 h, drying temperature 42° C.): Form B
- Crystal form ([3]; drying time 10 h, drying temperature 45° C.): Form B
- Crystal form ([3]; drying time 10 h, drying temperature 50° C.): Mixture of Form B +
- Crystal form ([3]; drying time 48 h, drying temperature 25° C.): Form A (2 hydrate)
- Transformation of the crystal form ([3]; vacuum dried at 25° C.): not transformed to other crystal forms

SMILES: CC(C)(C)C(=O)OCOP(=O)(COCCN1C=NC2C(N)=NC=NC21)OCOC(=O)C(C)(C)C (single isomer, unassigned) [Form I, 9-[2-[phosphonomethoxy]ethyl]adenine bis-pivaloyloxymethyl ester, reference compound]
- Dissolution rate (%) ([1]; 0.01N HCl, 5 min): 88.11%
- Dissolution rate (%) ([1]; 0.01N HCl, 10 min): 93.32%
- Dissolution rate (%) ([1]; 0.01N HCl, 15 min): 95.48%
- Dissolution rate (%) ([1]; 0.01N HCl, 30 min): 98.17%
- Dissolution rate (%) ([1]; distilled water (pH 7), 5 min): 70.92%
- Dissolution rate (%) ([1]; distilled water (pH 7), 10 min): 83.19%
- Dissolution rate (%) ([1]; distilled water (pH 7), 15 min): 88.58%
- Dissolution rate (%) ([1]; distilled water (pH 7), 30 min): 94.85%
- Dissolution rate (%) ([1]; pH 1.2 buffer, 5 min): 95.24%
- Dissolution rate (%) ([1]; pH 1.2 buffer, 10 min): 100.90%
- Dissolution rate (%) ([1]; pH 1.2 buffer, 15 min): 101.38%
- Dissolution rate (%) ([1]; pH 1.2 buffer, 30 min): 101.61%
- Dissolution rate (%) ([1]; pH 4.0 buffer, 5 min): 83.38%
- Dissolution rate (%) ([1]; pH 4.0 buffer, 10 min): 88.07%
- Dissolution rate (%) ([1]; pH 4.0 buffer, 15 min): 89.76%
- Dissolution rate (%) ([1]; pH 4.0 buffer, 30 min): 93.00%
- Dissolution rate (%) ([1]; pH 6.0 buffer, 5 min): 74.89%
- Dissolution rate (%) ([1]; pH 6.0 buffer, 10 min): 89.88%
- Dissolution rate (%) ([1]; pH 6.0 buffer, 15 min): 94.58%
- Dissolution rate (%) ([1]; pH 6.0 buffer, 30 min): 97.38%
- Transformation of the crystal form ([3]; dried at 35 to 45° C.): not transformed to Form B
- Crystal form [3, 8]: Form I
- Crystal form ([3]; drying time 20 h, drying temperature 40° C.): Form I
